This is an account of results in PMC9223764, “In Vitro Selection and Characterization of HIV-1 Variants with Increased Resistance to LP-40, Enfuvirtide-Based Lipopeptide Inhibitor” (International Journal of Molecular Sciences, 2022).

Read-outs that look alike come from different tables or passages of the source. Where a SMILES comes first, the peptide text is derived from it. The star is where a group is joined. Palmitoyl = CCCCCCCCCCCCCCCC(=O)* Where only a bound is given, the exact number is not on record here.

Assay [1] relates to LP40-V11 pseudovirus (HIV-1 NL4-3 Env mutant). It counts as cell-based. To be noted: for IC50: LP40-V11 (Env selected at LP-40 20 µM), TZM-bl cells, 48 h, luciferase, mean ± SD, triplicate, repeated three times. Here is the method: (§1) To simulate the sequence changes of viral resistance genes under different drug concentration pressures, we constructed the Env genes under different drug concentration pressures in the PCDNA3.1 vector and obtained a series of mutations. […] T20-V 6~12, T20-V 13~14, and T 20-V 15~18 were constructed at concentrations of 200 µM (P21), 400 µM (P24), and 2000 µM (P32), respectively. Similarly, the LP-40 pressure concentrations were 0.3 µM, 8 µM, 20 µM, and 200 µM, respectively, and the constructs were numbered LP40-V 1~5, LP40-V 6~8, LP40-V 9~11, and LP40-V 12~15. Resistance mutations will cause varying levels of damage to the function of the pseudoviral envelope proteins. Here, we explored how serial mutations affect the function of viral envelope proteins. Based on this problem, we performed a single round of quantitative P24-infection experiments, packaging the pseudovirus with a previously constructed series of mutant plasmids. We compared the invasion ability of the HIV-1 wild-type and mutant pseudoviruses toward target cells under the same P24 content (using the invasion capacity of each subtype as 100%).
(§2) The infectivity of HIV Env mutants and the inhibitory activities of membrane fusion inhibitors on mutants in TZM-bl cells were measured using a single-cycle infection assay as described previously. Briefly, the HIV pseudovirus was packed using an Env-coding plasmid, and pSG3ΔEnv was co-transfected into HEK293T cells. pSG3ΔEnv encodes an Env-defective, luciferase-expressing HIV-1 genome. After the pseudoviruses were harvested and filtrated, the amount of pseudoviruses was fixed via P24 antigen, and their infectivity was determined in TZM-bl cells. In order to measure the inhibitory activities of the inhibitors, inhibitors diluted serially 3-fold were mixed with an equal volume of pseudoviruses, and then 100 µL 1 × 10^5/mL TZM-bl cells were added to the mixture and incubated at 37 °C with 5% CO2 for 48 h. After that, TZM-bl cells were lysed using reporter lysis buffer, and IC50 values were calculated according to luciferase activity measured by luciferase assay reagents and a luminescence counter (Promega, Madison, WI, USA).

Assay [2] has as its system T20-V7 pseudovirus (HIV-1 NL4-3 Env mutant). The assay is classed as cell-based. The conditions noted are these: for IC50: T20-V7 (Env selected at T20 200 µM, P21), TZM-bl cells, 48 h, luciferase, mean ± SD, triplicate, repeated three times. The procedure: as §1, §2
For assay [3], the system named is T20-V16 pseudovirus (HIV-1 NL4-3 Env mutant). It counts as cell-based. The conditions noted are these: for IC50: T20-V16 (Env selected at T20 2000 µM, P32), TZM-bl cells, 48 h, luciferase, mean ± SD, triplicate, repeated three times. The procedure:
as §1, §2

Assay [4] has as its system T20-V6 pseudovirus (HIV-1 NL4-3 Env mutant). It counts as cell-based. The conditions noted are these: for IC50: T20-V6 (Env selected at T20 200 µM, P21), TZM-bl cells, 48 h, luciferase, mean ± SD, triplicate, repeated three times. The procedure: as §1, §2
Assay [5] deals with T20-V18 pseudovirus (HIV-1 NL4-3 Env mutant). It counts as cell-based. To be noted: for IC50: T20-V18 (Env selected at T20 2000 µM, P32), TZM-bl cells, 48 h, luciferase, mean ± SD, triplicate, repeated three times. Here is the method: as §1, §2
The test system of assay [6] is LP40-V9 pseudovirus (HIV-1 NL4-3 Env mutant). The assay is classed as cell-based. The conditions noted are these: for IC50: LP40-V9 (Env selected at LP-40 20 µM), TZM-bl cells, 48 h, luciferase, mean ± SD, triplicate, repeated three times. Here is the method: as §1, §2
Assay [7] deals with T20-V14 pseudovirus (HIV-1 NL4-3 Env mutant). It counts as cell-based. To be noted: for IC50: T20-V14 (Env selected at T20 400 µM, P24), TZM-bl cells, 48 h, luciferase, mean ± SD, triplicate, repeated three times. Here is the method:
as §1, §2

In assay [8] the test system is T20- and LP40-resistant mutant pseudoviruses of HIV-1 NL4-3. The assay is classed as cell-based. The conditions noted are these: for Largest decrease in susceptibility among LP-40-resistant strains / Largest decrease in susceptibility among T20-resistant strains / Decrease in sensitivity, range over strains / Decrease in sensitivity, range over mutants / Decrease in sensitivity: relative to WT. The procedure: as §1
The frequency of the T20-V8 strain was 1/12. From sequence alignment, except for the L33S, which appeared in all the sequences, the new mutation site of D36G/V38A/N42T was also introduced.
Among them, LP-40-inhibited LP40-V11 reached 3.3 µM. When the concentration of LP-40 rose to 200 µM, I37T disappeared, and L33S/D36G/V38A/N42T/I69V became the main mutation point.
The mutation G20V only appeared in T20-induced drug resistance, and the frequency was low. […] This mutation point N126K appeared in LP-40-induced drug resistance with a high frequency.
as §2

Assay [9] deals with HIV-1 NL4-3 gp41 I69V pseudovirus. The assay is classed as cell-based. The conditions noted are these: for Fold change in IC50: I69V relative to WT NL4-3.
The test system of a further assay is NL4-3D36G virus. To be noted: single infection inhibition experiment; cited from earlier work. The procedure: However, it requires frequent and high doses (90 mg, twice a day), and resistance is easily acquired. The TRM of the T20 carboxy-terminal, also known as the MPER (membrane proximal external region), is rich in […] sequences ([…]). Therefore, it is highly hydrophobic (Figure 1).

[10] abbreviates: six point-mutant pseudoviruses L33S, I37T, V38A, V38T, N42T, N43S.
[11] abbreviates: six point-mutant pseudoviruses L33S, I37T, V38A, V38T, N42T, N43S, read-out: IC50, range over mutants.

A word on the IC50: it is the concentration at which inhibition is half-maximal. For `CCCCCCCCCCCCCCCC(=O)NCCCC[C@H](NC(=O)[C@H](CC(=O)O)NC(=O)[C@H](CC(C)C)NC(=O)[C@H](CCC(=O)O)NC(=O)[C@H](CC(C)C)NC(=O)[C@H](CC(C)C)NC(=O)[C@H](CCC(=O)O)NC(=O)[C@H](CCC(N)=O)NC(=O)[C@H](CCC(=O)O)NC(=O)[C@H](CC(N)=O)NC(=O)[C@H](CCCCN)NC(=O)[C@H](CCC(=O)O)NC(=O)[C@H](CCC(N)=O)NC(=O)[C@H](CCC(N)=O)NC(=O)[C@H](CC(N)=O)NC(=O)[C@H](CCC(N)=O)NC(=O)[C@H](CO)NC(=O)[C@H](CCC(=O)O)NC(=O)[C@H](CCC(=O)O)NC(=O)[C@@H](NC(=O)[C@H](CC(C)C)NC(=O)[C@H](CO)NC(=O)[C@H](Cc1c[nH]cn1)NC(=O)[C@@H](NC(=O)[C@H](CC(C)C)NC(=O)[C@H](CO)NC(=O)[C@@H](NC(=O)[C@H](Cc1ccc(O)cc1)NC(C)=O)[C@@H](C)O)[C@@H](C)CC)[C@@H](C)CC)C(N)=O` [LP-40] (Ac-YTSLIHSLIEESQNQQEKNEQELLELDK(Palmitoyl)-NH2), the IC50 in [1] was 3.33 ± 0.978 µM; in assay [2], 2.73 ± 0.212 µM; in assay [3] it was > 6.25 µM; in [4], 3.51 ± 0.631 µM; in [5], > 6.25 µM; in assay [6], 2.89 ± 0.431 µM. The IC50 is 2.9 ± 0.0851 µM in [7]; 0.2 to 3.5 µM in assay [8] (setting [11]); 2.8 to 3.3 µM in [8] (viral strains induced at LP-40 8 µM and 20 µM, read-out: IC50, range over strains); 0.0294 ± 0.00459 µM in [9] (I69V, Table 2, TZM-bl cells, 48 h, luciferase, mean ± SD, triplicate, repeated three times). Also, the “Fold change in IC50” value was 112.32 fold in [1] (LP40-V11 relative to WT NL4-3, Table 1); 91.82 fold in [2] (T20-V7 relative to WT NL4-3, Table 1); >227.43 fold in assay [3] (T20-V16 relative to WT NL4-3, Table 1); 118.37 fold in [4] (T20-V6 relative to WT NL4-3, Table 1); >227.43 fold in [5] (T20-V18 relative to WT NL4-3, Table 1); 97.22 fold in assay [6] (LP40-V9 relative to WT NL4-3, Table 1). The “Fold change in IC50” value in [7] (T20-V14 relative to WT NL4-3, Table 1) is 97.57 fold; in [9] (Table 2), 0.93 fold; in assay [9] (Table 3), 1.08 fold. Also, the “Largest decrease in susceptibility among LP-40-resistant strains” value in assay [8] was “over 227 fold”. In addition, in assay [8], the “Largest decrease in susceptibility among T20-resistant strains” value came to 227 fold. Moreover, the “Decrease in sensitivity, range over strains” value in [8] (first group of LP-40-resistant strains (LP40-V1, LP40-V2)) is given as 1.5–12.6 fold. In addition, in assay [8] (setting [10]), the “Decrease in sensitivity, range over mutants” value is 6–111 fold. Besides, the Decrease in sensitivity entry in assay [8] (strains induced at LP-40 200 µM) is recorded as “over 227 fold”; in assay [8] (viral strains induced at LP-40 8 µM and 20 µM) it was “more than 92 fold”. In addition, in the assay on NL4-3D36G virus, the “Improvement of antiviral IC50 compared to T20” value is on record as “approximately seven-fold”.

For the compound Enfuvirtide, the IC50 in [1] was found to be 4.35 ± 0.522 µM; in [2], 2.81 ± 0.458 µM; in assay [3], 1.74 ± 0.229 µM; in [4], 3.85 ± 0.516 µM; in assay [5], 6.15 ± 0.475 µM; in assay [6], 1.27 ± 0.315 µM. For the same compound, the IC50 was 4.43 ± 0.967 µM in assay [7]; 0.41 to 3.4 µM in [8] (setting [11]); 2.8 to 5.3 µM in assay [8] (viral strains induced at T20 200 µM, read-out: IC50, range over strains). Moreover, the “Largest decrease in susceptibility among LP-40-resistant strains” value in [8] is 107 fold. Besides, the “Largest decrease in susceptibility among T20-resistant strains” value in [8] was “up to 112 fold”. Further, the “Decrease in sensitivity, range over mutants” value in assay [8] (setting [10]) is 6–51 fold. In addition, the “Decrease in sensitivity, range over strains” value is recorded as 32- to 112 fold in [8] (strains induced at T20 2000 µM) and “one- to two” in assay [8] (virus strain induced at T20 12 µM). Also, the Decrease in sensitivity entry in [8] (viral strains induced at T20 200 µM) is reported as “more than 50 fold”.
